pIC50: −log10 of the molar value.
What was measured:
[1] = target: T1, integrin α5β1 (fibronectin receptor purified from the human placenta) (Homo sapiens, UniProt P05556+P08648); test: α5β1 binding assay (fibronectin-fibronectin receptor binding assay); conditions: fibronectin binding to human placenta fibronectin receptor; read-out: α5β1 Binding inhibitory activity
T1 construct: a fibronectin receptor (protein content: 52.1 μg/ml) purified from the human placenta; from tissue; host or cells: human placenta
T1 sequence (P08648 42-894 limits assumed): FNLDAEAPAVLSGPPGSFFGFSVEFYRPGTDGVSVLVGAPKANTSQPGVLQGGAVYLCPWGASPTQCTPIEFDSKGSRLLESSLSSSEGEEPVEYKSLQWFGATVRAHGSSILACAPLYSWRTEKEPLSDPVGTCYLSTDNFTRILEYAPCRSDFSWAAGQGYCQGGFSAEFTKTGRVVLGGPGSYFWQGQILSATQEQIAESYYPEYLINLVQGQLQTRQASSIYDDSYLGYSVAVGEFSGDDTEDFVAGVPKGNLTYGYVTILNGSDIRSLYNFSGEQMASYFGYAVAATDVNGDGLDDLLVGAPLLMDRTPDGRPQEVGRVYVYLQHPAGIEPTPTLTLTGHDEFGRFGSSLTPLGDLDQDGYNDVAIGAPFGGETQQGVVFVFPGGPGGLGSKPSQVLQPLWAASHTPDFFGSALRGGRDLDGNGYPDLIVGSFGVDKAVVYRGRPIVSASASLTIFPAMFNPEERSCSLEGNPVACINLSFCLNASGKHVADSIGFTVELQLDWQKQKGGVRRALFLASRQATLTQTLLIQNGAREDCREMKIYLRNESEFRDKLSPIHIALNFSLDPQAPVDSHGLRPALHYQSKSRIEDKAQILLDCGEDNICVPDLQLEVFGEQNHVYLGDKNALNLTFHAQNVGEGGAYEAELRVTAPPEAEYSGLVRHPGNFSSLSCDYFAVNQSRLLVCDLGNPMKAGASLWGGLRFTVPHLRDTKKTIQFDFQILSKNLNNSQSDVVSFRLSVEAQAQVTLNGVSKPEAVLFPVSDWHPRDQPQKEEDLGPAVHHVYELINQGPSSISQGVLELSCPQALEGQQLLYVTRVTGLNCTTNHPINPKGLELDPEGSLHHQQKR
T1 sequence (P08648 895-1049 limits assumed): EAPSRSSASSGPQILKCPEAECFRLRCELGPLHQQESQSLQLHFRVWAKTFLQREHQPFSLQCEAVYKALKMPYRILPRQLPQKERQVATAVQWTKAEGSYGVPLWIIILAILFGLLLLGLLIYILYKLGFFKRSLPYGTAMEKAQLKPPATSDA
T1 sequence (P05556 21-798): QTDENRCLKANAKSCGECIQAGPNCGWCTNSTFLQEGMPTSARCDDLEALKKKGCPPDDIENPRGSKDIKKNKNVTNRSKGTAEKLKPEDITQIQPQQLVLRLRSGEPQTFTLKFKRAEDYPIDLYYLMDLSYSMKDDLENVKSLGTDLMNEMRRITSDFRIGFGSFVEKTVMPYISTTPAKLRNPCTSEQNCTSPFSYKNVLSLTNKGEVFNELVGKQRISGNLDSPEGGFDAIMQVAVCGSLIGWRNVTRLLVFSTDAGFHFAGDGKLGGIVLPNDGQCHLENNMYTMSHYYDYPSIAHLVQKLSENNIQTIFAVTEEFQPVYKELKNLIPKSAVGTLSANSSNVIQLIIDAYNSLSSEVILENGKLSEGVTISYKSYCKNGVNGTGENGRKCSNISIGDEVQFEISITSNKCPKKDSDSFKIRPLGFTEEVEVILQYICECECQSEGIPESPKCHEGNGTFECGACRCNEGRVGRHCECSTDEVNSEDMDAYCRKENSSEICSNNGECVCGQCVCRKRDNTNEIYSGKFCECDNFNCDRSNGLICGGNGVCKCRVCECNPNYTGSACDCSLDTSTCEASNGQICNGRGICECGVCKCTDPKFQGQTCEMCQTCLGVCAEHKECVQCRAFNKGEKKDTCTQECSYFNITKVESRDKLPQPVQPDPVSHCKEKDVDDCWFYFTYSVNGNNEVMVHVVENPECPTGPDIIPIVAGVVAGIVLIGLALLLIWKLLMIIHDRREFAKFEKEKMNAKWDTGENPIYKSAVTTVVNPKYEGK
Description: (§1) Integrin α5β1 antagonistic activity (lethality) was measured for the compounds according to the present invention in a fibronectin-fibronectin receptor binding assay system in accordance with the method of Kouns et al. (W. C. Kouns, D. Kirchhofer, P. Hadvary, A. Edenhofer, T. Weller, G. Pfenninger, H. R. Baumgartner, L. K. Jennings, and B. Steiner, Blood, 80, 2539-2547 (1992)).
Specifically, a fibronectin receptor (protein content: 52.1 μg/ml) purified from the human placenta by the method of Pytela et al. (R. Pytela, M. D. Pierschbacher, S. Argraves, S. Suzuki, and E. Ruoslahti, Method in Enzymology, 144, 475-489 (1987)) was diluted 25 times with TBS (20 mM Tris-HCl, 150 mM NaCl, 1 mM CaCl2, 1 mM MgCl2, pH 7.4), and distributed and coated on wells (50 μl/well) of a plate (Maxisorp, Nunc, 96 well Immuno Plate). The plate was then allowed to stand at 4° C. for one day, washed twice with TBS (200 μl/well), and then subjected to blocking with TBS (150 μl/well) containing 3% skim milk (DIFCO) at 4° C. overnight. After washing twice with TBS (200 μl/well) containing 0.05% Tween-20 and then washing twice with TBS (200 μl/well), purification was carried out according to the method of E. Engvall et al. (E. Engvall, E. Ruoslahti, and E. J. Miller, J. Exp. Med., 147, 1584-1595 (1978)), and 50 […] of fibronectin adjusted to 0.2 μg/ml by the addition of TBS (TBS-Tween) containing 0.01% Tween-20 was mixed with 50 μl of each test compound adjusted to each concentration in the wells, and a reaction was allowed to proceed at room temperature for 3 hr. After the completion of the reaction, the wells were washed five times with TBS-Tween. A solution prepared by diluting a peroxidase-labeled fibronectin antibody (CAPPEL) 500 times with TBS-Tween was added in an amount of 50 μl per well, and a reaction was allowed to proceed at room temperature for 1.5 hr. After washing five times with TBS-Tween (200 μl/well), ABTS (SIGMA) adjusted to 1 mg/ml by the addition of a ten-fold diluted POD-buffer (ZYMED) was added in an amount of 50 μl/well, and a reaction was allowed to proceed for 5 to 10 min. A 0.1 M citric acid buffer (pH 4.3) containing 0.05% NaN3 was added in an amount of 50 μl/well to stop the reaction, followed by the measurement of the absorbance at 415 nm with a microplate reader (MTP 32, Corona Electric) (reference: 675 nm). The total binding was defined as the absorbance after a reaction using 50 μl of TBS-Tween instead of the test compound, and the non-specific binding (100% inhibition) was defined as the absorbance after a reaction using 50 μl of TBS-Tween containing 2×10^−3 M RGDS. The inhibition was calculated by the following equation: [formula]
(§2) IC50 was determined from a primary regression line of the logarithm of each concentration of the test compound and the logarithm of (100−inhibition)/inhibition.

[2] = target: T2, integrin αvβ3 (vitronectin receptor purified from the human placenta) (Homo sapiens, UniProt P05106+P06756); test: αvβ3 binding assay (vitronectin-vitronectin receptor binding assay); conditions: vitronectin binding to human placenta vitronectin receptor; read-out: integrin αvβ3 antagonistic activity, IC50 value
T2 construct: a vitronectin receptor (protein content: 118 μg/ml) purified from the human placenta; from tissue; host or cells: human placenta
T2 sequence (P06756 31-889 limits assumed): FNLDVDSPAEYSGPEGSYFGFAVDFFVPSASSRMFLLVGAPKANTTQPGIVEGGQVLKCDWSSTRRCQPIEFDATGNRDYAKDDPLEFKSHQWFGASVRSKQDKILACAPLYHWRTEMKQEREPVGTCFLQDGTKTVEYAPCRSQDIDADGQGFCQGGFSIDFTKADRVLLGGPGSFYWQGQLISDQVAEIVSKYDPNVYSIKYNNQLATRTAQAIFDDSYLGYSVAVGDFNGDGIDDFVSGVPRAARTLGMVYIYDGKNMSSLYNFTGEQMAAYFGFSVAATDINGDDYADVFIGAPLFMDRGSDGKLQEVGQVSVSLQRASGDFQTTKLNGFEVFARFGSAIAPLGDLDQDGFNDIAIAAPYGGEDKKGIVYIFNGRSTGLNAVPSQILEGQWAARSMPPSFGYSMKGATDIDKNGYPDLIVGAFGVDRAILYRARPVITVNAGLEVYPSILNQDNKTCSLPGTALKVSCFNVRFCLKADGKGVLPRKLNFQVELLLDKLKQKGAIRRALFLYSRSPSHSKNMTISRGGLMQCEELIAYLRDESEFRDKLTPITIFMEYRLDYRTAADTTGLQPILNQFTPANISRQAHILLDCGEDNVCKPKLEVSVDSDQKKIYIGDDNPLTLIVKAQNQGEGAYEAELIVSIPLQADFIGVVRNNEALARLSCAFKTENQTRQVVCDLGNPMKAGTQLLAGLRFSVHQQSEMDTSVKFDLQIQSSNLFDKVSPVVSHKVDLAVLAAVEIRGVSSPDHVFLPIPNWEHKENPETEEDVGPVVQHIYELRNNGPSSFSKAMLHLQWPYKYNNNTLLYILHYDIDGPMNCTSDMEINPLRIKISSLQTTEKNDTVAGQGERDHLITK
T2 sequence (P06756 891-1048 limits assumed): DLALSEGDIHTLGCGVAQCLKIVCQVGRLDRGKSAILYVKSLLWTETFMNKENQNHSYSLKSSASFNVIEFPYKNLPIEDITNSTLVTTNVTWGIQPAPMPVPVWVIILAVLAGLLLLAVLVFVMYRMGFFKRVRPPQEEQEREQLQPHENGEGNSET
T2 sequence (P05106 27-788): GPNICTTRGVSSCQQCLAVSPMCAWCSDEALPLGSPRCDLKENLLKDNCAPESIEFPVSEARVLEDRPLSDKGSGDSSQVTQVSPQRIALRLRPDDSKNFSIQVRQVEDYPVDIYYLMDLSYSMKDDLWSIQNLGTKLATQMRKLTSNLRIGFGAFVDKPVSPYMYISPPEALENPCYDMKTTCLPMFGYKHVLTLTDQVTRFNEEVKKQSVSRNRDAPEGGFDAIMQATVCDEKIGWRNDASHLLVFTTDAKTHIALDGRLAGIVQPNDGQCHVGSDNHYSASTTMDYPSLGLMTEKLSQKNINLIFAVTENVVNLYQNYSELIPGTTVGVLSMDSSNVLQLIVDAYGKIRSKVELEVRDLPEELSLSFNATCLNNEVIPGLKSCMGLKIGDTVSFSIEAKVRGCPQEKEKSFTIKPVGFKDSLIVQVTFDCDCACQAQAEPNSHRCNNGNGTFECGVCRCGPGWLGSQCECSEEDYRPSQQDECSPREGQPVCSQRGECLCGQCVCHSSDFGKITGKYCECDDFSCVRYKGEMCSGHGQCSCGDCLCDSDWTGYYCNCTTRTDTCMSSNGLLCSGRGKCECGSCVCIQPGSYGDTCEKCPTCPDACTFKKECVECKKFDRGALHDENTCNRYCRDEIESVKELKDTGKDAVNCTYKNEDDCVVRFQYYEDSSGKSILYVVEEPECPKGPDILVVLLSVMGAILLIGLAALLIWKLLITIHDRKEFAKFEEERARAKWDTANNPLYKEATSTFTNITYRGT
Description: as §1, with “αvβ3” for “α5β1”, “activity” for “activity (lethality)”, “vitronectin-vitronectin” for “fibronectin-fibronectin”, “Jennings” for “Jennings,”
Specifically, a vitronectin receptor (protein content: 118 μg/ml) purified from the human placenta in accordance with the method of Pytela et al. (R. Pytela, M. D. Pierschbacher, S. Argraves, S. Suzuki, and E. Ruoslahti, Method in Enzymology, 144, 475-489 (1987)) was diluted 50 times with TBS (20 mM Tris-HCl, 150 mM NaCl, 1 mM CaCl2, 1 mM MgCl2, pH 7.4), and distributed and coated on wells (50 μl/well) of a plate (Maxisorp, Nunc, 96 well Immuno Plate). The plate was then allowed to stand at 4° C. for 1 day, washed twice with TBS (200 μl/well), and then subjected to blocking with TBS (150 μl/well) containing 1% bovine serum albumin (SIGMA) at 4° C. overnight. After washing twice with TBS (200 μl/well), 50 μl of vitronectin (CALBIOCHEM) adjusted to 0.2 μg/ml by the addition of TBS (TBS-Tween) containing 0.01% Tween-20 was mixed with 50 μl of each test compound adjusted to each concentration in wells, and a reaction was allowed to proceed at room temperature for 4 hr. After the completion of the reaction, the wells were washed five times with TBS-Tween. A solution prepared by diluting anti-vitronectin rabbit antiserum (CHEMICON) 500 times with TBS-Tween was added as a primary antibody in an amount of 50 μl/well, and a reaction was allowed to proceed at room temperature for 1.5 hr. After washing five times with 200 μl/well of TBS-Tween, a peroxidase (POD)-labeled anti-rabbit IgG antibody solution (CAPPEL) diluted 500 times with TBS-Tween was added as a secondary antibody in an amount of 50 μl/well, and a reaction was allowed to proceed at room temperature for 1.5 hr. After washing five times with TBS-Tween (200 μl/well), ABTS (2,2′-azino-bis(3-ethylbenzthiazoline-6-sulfonic acid), SIGMA) was adjusted to 1 mg/ml by the addition of a ten-fold diluted POD-buffer (ZYMED), and added in an amount of 50 μl/well, and a reaction was allowed to proceed for 5 to 10 min. A 0.1 M citric acid buffer (pH 4.3) containing 0.05% NaN3 was added in an amount of 50 μl/well to stop the reaction, followed by the measurement of the absorbance at 415 nm with a microplate reader (MTP 32, Corona Electric) (reference: 675 nm). The total binding was defined as the absorbance after a reaction using 50 μl of TBS-Tween instead of the test compound, and the non-specific binding (100% inhibition) was defined as the absorbance after a reaction using 50 μl of TBS-Tween containing 2×10^−3 M RGDS. The inhibition was calculated by the following equation: [formula]
as §2

GP IIb/IIIa = GP IIb/IIIa (Homo sapiens, UniProt P05106+P08514); test: GP IIb/IIIa antagonistic activity (method of Pharmacological Test 2 in WO 94/21599); type: binding
Sequence of GP IIb/IIIa (P08514 32-887 limits assumed): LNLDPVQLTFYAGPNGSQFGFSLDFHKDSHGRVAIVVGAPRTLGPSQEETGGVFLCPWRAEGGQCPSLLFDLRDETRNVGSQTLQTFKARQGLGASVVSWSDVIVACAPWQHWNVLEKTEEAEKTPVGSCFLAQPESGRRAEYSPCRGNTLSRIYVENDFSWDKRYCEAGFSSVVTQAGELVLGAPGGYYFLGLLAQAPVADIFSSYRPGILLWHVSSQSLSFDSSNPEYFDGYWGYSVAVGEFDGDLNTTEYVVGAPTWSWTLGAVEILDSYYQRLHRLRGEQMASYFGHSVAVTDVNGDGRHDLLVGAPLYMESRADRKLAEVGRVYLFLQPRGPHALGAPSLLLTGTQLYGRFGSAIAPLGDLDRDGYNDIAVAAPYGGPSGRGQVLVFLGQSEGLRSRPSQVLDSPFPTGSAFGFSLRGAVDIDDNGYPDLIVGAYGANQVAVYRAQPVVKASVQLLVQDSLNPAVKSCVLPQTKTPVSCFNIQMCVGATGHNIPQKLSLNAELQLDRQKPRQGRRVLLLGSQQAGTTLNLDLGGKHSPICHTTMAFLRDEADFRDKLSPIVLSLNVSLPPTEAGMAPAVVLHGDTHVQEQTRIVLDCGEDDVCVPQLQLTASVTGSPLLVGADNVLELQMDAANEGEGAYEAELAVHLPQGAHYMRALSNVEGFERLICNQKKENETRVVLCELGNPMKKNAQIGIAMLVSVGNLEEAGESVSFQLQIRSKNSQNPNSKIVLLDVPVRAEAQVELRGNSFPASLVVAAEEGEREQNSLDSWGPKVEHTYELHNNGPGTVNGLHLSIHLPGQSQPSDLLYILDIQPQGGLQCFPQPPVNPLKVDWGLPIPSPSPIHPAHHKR
Sequence of GP IIb/IIIa (P08514 891-1039 limits assumed): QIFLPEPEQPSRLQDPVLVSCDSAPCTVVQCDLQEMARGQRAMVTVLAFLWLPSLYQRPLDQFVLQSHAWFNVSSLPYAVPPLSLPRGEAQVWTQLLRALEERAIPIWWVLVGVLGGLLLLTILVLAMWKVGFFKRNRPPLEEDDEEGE
Sequence of GP IIb/IIIa (P05106 27-788): as the sequence (P05106 27-788) above
Description: (§3) GP IIb/IIIa Antagonistic Activity and Human Platelet Aggregation Inhibitory Activity
GP IIb/IIIa antagonistic activity was measured for the compounds according to the present invention. The measurement of the GP IIb/IIIa antagonistic activity was carried out according to the method described in Pharmacological Test 2 in WO 94/21599.

[3] = tested on: human platelet aggregation; test: Human platelet aggregation inhibitory activity (method of Pharmacological Test 1 in WO 94/21599); type: cell-based; conditions: human platelets, read-out: inhibition of human platelet aggregation, IC5. value
Description: as §3
Human platelet aggregation inhibitory activity was measured for the compounds according to the present invention. The measurement of the human platelet aggregation activity was carried out according to the method described in Pharmacological Test 1 in WO 94/21599.

Structure (SMILES)	pIC50 [1]	pIC50 [2]	pIC50 (GP IIb/IIIa)	pIC50 [3]
O=C(NC[C@H](NS(=O)(=O)c1ccccc1)C(=O)O)c1ccc(N2CCC(Nc3nc4ccccc4[nH]3)CC2)cc1 [Example 10, (2S)-Benzenesulfonylamino-3-[4-{4-(1H-benzimidazol-2-ylamino)piperidin-1-yl}benzoylamino]-propionic acid]	5.80	–	–	–
Nc1ccc(S(=O)(=O)N[C@@H](CNC(=O)c2ccc(N3CCC(NC4=NCCCN4)CC3)c(F)c2)C(=O)O)cc1 [Example 68, (2S)-(4-Aminobenzenesulfonyl)amino-3-[3-fluoro-4-{4-(1,4,5,6-tetrahydropyrimidin-2-ylamino)-piperidin-1-yl}benzoylamino]propionic acid]	4.94	≥ 9.00	≥ 9.00	–
O=C(NC[C@H](NS(=O)(=O)c1ccccc1)C(=O)O)c1ccc(N2CCC(NC3=NCCCN3)CC2)cc1 [Example 3, (2S)-Benzenesulfonylamino-3-[4-{4-(1,4,5,6-tetrahydropyrimidin-2-ylamino)piperidin-1-yl}benzoyl-amino]propionic acid]	5.80	–	–	–
O=C(N[C@@H](CNC(=O)c1ccc(N2CCC(Nc3nc4ccccc4[nH]3)CC2)cc1)C(=O)O)OCc1ccccc1 [Example 24, 3-[4-{4-(1H-Benzimidazol-2-ylamino)piperidin-1-yl}benzoylamino]-(2S)-{(benzyloxy-carbonyl)amino}propionic acid]	5.16	–	≥ 9.00	–
O=C(NC[C@H](NS(=O)(=O)c1ccccc1)C(=O)O)c1ccc(N2CCC(NC3=NCCN3)CC2)cc1 [Example 40, (2S)-Benzenesulfonylamino-3-[4-{4-(4.5-dihydro-1H-imidazol-2-ylamino)piperidin-1-yl}benzoyl-amino]propionic acid]	–	–	≥ 9.00	≥ 7.05
CN(C1=NCCCN1)C1CCN(c2ccc(C(=O)NC[C@H](NS(=O)(=O)c3ccccc3)C(=O)O)cc2)CC1 [Example 45, (2S)-Benzenesulfonylamino-3-[4-[4-[{N-methyl-N-(1,4,5,6-tetrahydropyrimidin-2-yl)}amino]-piperidin-1-yl]benzoylamino]propionic acid]	–	–	≥ 9.00	≥ 7.05
CCCCS(=O)(=O)N[C@@H](CNC(=O)c1ccc(N2CCC(Nc3nc4ccccc4[nH]3)CC2)cc1)C(=O)O [Example 28, (2S)-Butane-1-sulfonylamino-3-[4-{4-(1H-benzimidazol-2-ylamino)piperidin-1-yl}benzoylamino]-propionic acid]	5.89	≥ 9.00	≥ 9.00	–
O=C(NC[C@H](NS(=O)(=O)c1ccccc1)C(=O)O)c1ccc(N2CCC(NC3=NCCN3)CC2)c(F)c1 [Example 54, (2S)-Benzenesulfonylamino-3-[3-fluoro-4-{4-(4,5-dihydro-1H-imidazol-2-ylamino)piperidin-1-yl}-benzoylamino]propionic acid]	–	≥ 9.00	≥ 9.00	≥ 7.05
O=C(NC[C@H](NS(=O)(=O)c1ccccc1)C(=O)O)c1ccc(N2CCC(NC3=NCCCCN3)CC2)cc1 [Example 42, (2S)-Benzenesulfonylamino-3-[4-{4-(4,5,6,7-tetrahydro-1H-[1,3]diazepin-2-ylamino)piperidin-1-yl}-benzoylamino]propionic acid]	–	≥ 9.00	≥ 9.00	≥ 7.05

Source: patent US6420558B1, “Aminopiperidine derivates as integrin αvβ3 antagonists” (Meiji Seika Kaisha, Ltd., priority 1998, dated 2002)
